Source: US20250034136A1 (Nimbus Wadjet, Inc., priority 2023, published 2025)

Legend:
[1] = biological target: WRN (BV08), human Werner helicase (Uniprot Q14191, amino acids 517-1235 with L1074F point mutation) (Homo sapiens (Human), UniProt Q14191, L1074F); test: WRN (BV08) ADP-Glo assay; assay type: biochemical; details: class symbols A-E, read-out: ADP-Glo_hWRN_IC50
[2] = tested on: p21 induction in HCT116 cells; test: p21 induction in HCT116 cells; assay type: cell-based; details: Homo sapiens, HCT-116, 24 h, HCT116 cells, 24 h compound incubation; read-out: P21_EC50
Summary of the method: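 EC50 from non-linear curve fit of p21 immunofluorescence (800 nm), with GAPDH (700 nm) read alongside. DMSO and a reference WRN inhibitor served as low and high controls. Cells (2,000/well) got 11 compound concentrations in duplicate for 24 h at 37 °C.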

Chain of WRN (BV08), human Werner helicase (Uniprot Q14191, amino acids 517-1235 with L1074F point mutation) (Q14191 other isoform, or with tags, fused parts or gaps L1074F (already in the parent)): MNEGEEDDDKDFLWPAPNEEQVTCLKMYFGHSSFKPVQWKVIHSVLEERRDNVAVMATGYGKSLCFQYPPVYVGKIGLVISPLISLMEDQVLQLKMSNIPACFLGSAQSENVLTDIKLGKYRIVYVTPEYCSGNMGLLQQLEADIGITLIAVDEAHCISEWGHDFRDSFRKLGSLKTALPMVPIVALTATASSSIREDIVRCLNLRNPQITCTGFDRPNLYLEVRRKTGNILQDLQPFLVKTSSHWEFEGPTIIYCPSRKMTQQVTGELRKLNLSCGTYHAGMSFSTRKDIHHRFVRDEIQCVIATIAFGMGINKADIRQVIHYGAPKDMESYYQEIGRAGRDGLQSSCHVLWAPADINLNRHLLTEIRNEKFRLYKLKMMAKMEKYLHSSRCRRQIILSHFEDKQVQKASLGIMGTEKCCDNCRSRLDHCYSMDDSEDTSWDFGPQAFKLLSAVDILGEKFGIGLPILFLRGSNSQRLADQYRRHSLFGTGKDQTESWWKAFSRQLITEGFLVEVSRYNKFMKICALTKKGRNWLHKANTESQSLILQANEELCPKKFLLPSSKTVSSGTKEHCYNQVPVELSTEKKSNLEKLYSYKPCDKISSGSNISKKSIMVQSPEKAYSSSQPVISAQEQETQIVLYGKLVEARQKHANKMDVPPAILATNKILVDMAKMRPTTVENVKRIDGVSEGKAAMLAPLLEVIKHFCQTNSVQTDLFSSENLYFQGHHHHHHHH

| IC50 [1] | EC50 [2] | SMILES |
| --- | --- | --- |
| 0.005 to 0.05 µM | > 5 µM | CCc1c(N2CCN(C(=O)c3ncnc(C)c3O)CC2)c(=O)c2nc(N(C)CCO)cnc2n1CC(=O)Nc1ccc(C(F)(F)F)cc1Cl [I-73, N-(2-chloro-4-(trifluoromethyl)phenyl)-2-(6-ethyl-7-(4-(5-hydroxy-6-methylpyrimidine-4-carbonyl)piperazin-1-yl)-2-((2-hydroxyethyl)(methyl)amino)-8-oxopyrido[2,3-b]pyrazin-5(8H)-yl)acetamide] |
| 0.005 to 0.05 µM | 0.5 to 2 µM | CCc1c(N2CCN(C(=O)c3ncnc(C)c3O)CC2)c(=O)c2nc(N(C)CC)cnc2n1CC(=O)Nc1ccc(C(F)(F)F)cc1Cl [I-74, N-(2-chloro-4-(trifluoromethyl)phenyl)-2-(6-ethyl-2-(ethyl(methyl)amino)-7-(4-(5-hydroxy-6-methylpyrimidine-4-carbonyl)piperazin-1-yl)-8-oxopyrido[2,3-b]pyrazin-5(8H)-yl)acetamide] |
| 0.005 to 0.05 µM | 0.5 to 2 µM | CCc1c(N2CCN(C(=O)c3ncnc(C)c3O)CC2)c(=O)c2nc(N3CCCC3)cnc2n1CC(=O)Nc1ccc(C(F)(F)F)cc1Cl [I-75, N-(2-chloro-4-(trifluoromethyl)phenyl)-2-(6-ethyl-7-(4-(5-hydroxy-6-methylpyrimidine-4-carbonyl)piperazin-1-yl)-8-oxo-2-(pyrrolidin-1-yl)pyrido[2,3-b]pyrazin-5(8H)-yl)acetamide] |
| 0.005 to 0.05 µM | > 5 µM | CCc1c(N2CCN(C(=O)c3c(O)ccc4[nH]ncc34)CC2)c(=O)c2ncc(C)nc2n1CC(=O)Nc1ccc(C(F)(F)F)cc1Cl [I-76, N-(2-chloro-4-(trifluoromethyl)phenyl)-2-(6-ethyl-7-(4-(5-hydroxy-1H-indazole-4-carbonyl)piperazin-1-yl)-3-methyl-8-oxopyrido[2,3-b]pyrazin-5(8H)-yl)acetamide] |
| 0.005 to 0.05 µM | > 5 µM | CCc1c(N2CCN(C(=O)c3nocc3O)CC2)c(=O)c2ncc(C)nc2n1CC(=O)Nc1ccc(C(F)(F)F)cc1Cl [I-77, N-(2-chloro-4-(trifluoromethyl)phenyl)-2-(6-ethyl-7-(4-(4-hydroxyisoxazole-3-carbonyl)piperazin-1-yl)-3-methyl-8-oxopyrido[2,3-b]pyrazin-5(8H)-yl)acetamide] |
| 0.005 to 0.05 µM | > 5 µM | CCc1c(N2CCN(C(=O)c3ncnc(C)c3O)CC2)c(=O)c2nc(-c3cnn(C)c3)cnc2n1CC(=O)Nc1ccc(C(F)(F)F)cc1Cl [I-79, N-(2-chloro-4-(trifluoromethyl)phenyl)-2-(6-ethyl-7-(4-(5-hydroxy-6-methylpyrimidine-4-carbonyl)piperazin-1-yl)-2-(1-methyl-1H-pyrazol-4-yl)-8-oxopyrido[2,3-b]pyrazin-5(8H)-yl)acetamide] |
| 0.005 to 0.05 µM | > 5 µM | CCc1c(N2CCN(C(=O)c3ncnc(C)c3O)CC2)c(=O)c2nc(C)cnc2n1CC(=O)Nc1ccc(C(F)(F)F)cc1Cl [I-80, N-(2-chloro-4-(trifluoromethyl)phenyl)-2-(6-ethyl-7-(4-(5-hydroxy-6-methylpyrimidine-4-carbonyl)piperazin-1-yl)-2-methyl-8-oxopyrido[2,3-b]pyrazin-5(8H)-yl)acetamide] |

More lines, now with the values behind:

| SMILES | IC50 [1] | EC50 [2] |
| --- | --- | --- |
| CCc1c(N2CCN(C(=O)c3ncnc(C)c3O)CC2)c(=O)c2nc(N(C)C3CC(C)(O)C3)cnc2n1CC(=O)Nc1ccc(C(F)(F)F)cc1Cl (stereo not drawn) [I-59, N-(2-chloro-4-(trifluoromethyl)phenyl)-2-(6-ethyl-2-((3-hydroxy-3-methylcyclobutyl)(methyl)amino)-7-(4-(5-hydroxy-6-methylpyrimidine-4-carbonyl)piperazin-1-yl)-8-oxopyrido[2,3-b]pyrazin-5(8H)-yl)acetamide] | 0.005 to 0.05 µM | 2 to 5 µM |
| CCc1c(N2CCN(C(=O)c3ncnc(C)c3O)CC2)c(=O)c2nc(N(C)C3CC(OC)C3)cnc2n1CC(=O)Nc1ccc(C(F)(F)F)cc1Cl (stereo not drawn) [I-60, N-(2-chloro-4-(trifluoromethyl)phenyl)-2-(6-ethyl-7-(4-(5-hydroxy-6-methylpyrimidine-4-carbonyl)piperazin-1-yl)-2-((3-methoxycyclobutyl)(methyl)amino)-8-oxopyrido[2,3-b]pyrazin-5(8H)-yl)acetamide] | 0.005 to 0.05 µM | 0.5 to 2 µM |
| CCc1c(N2CCN(C(=O)c3ncnc(C)c3O)CC2)c(=O)c2nc3cc(C)sc3nc2n1CC(=O)Nc1ccc(C(F)(F)F)cc1Cl [I-61, N-(2-chloro-4-(trifluoromethyl)phenyl)-2-(7-ethyl-6-(4-(5-hydroxy-6-methylpyrimidine-4-carbonyl)piperazin-1-yl)-2-methyl-5-oxopyrido[2,3-b]thieno[3,2-e]pyrazin-8(5H)-yl)acetamide] | 0.005 to 0.05 µM | < 0.5 µM |
| CCc1c(N2CCN(C(=O)c3c(F)cnc(OC)c3O)CC2)c(=O)c2ncc(C)nc2n1CC(=O)Nc1ccc(C(F)(F)F)cc1Cl [I-62, N-(2-chloro-4-(trifluoromethyl)phenyl)-2-(6-ethyl-7-(4-(5-fluoro-3-hydroxy-2-methoxyisonicotinoyl)piperazin-1-yl)-3-methyl-8-oxopyrido[2,3-b]pyrazin-5(8H)-yl)acetamide] | 0.005 to 0.05 µM | > 5 µM |
| CCc1c(N2CCN(C(=O)c3ncnc(C)c3O)CC2)c(=O)c2nc(-c3cnn(C)c3)c(C)nc2n1CC(=O)Nc1ccc(C(F)(F)F)cc1Cl [I-63, N-(2-chloro-4-(trifluoromethyl)phenyl)-2-(6-ethyl-7-(4-(5-hydroxy-6-methylpyrimidine-4-carbonyl)piperazin-1-yl)-3-methyl-2-(1-methyl-1H-pyrazol-4-yl)-8-oxopyrido[2,3-b]pyrazin-5(8H)-yl)acetamide] | 0.005 to 0.05 µM | > 5 µM |
| CCc1c(N2CCN(C(=O)c3ncnc(C)c3O)CC2)c(=O)c2nc(C)c(C)nc2n1CC(=O)Nc1ccc(C(F)(F)F)cc1Cl [I-64, N-(2-chloro-4-(trifluoromethyl)phenyl)-2-(6-ethyl-7-(4-(5-hydroxy-6-methylpyrimidine-4-carbonyl)piperazin-1-yl)-2,3-dimethyl-8-oxopyrido[2,3-b]pyrazin-5(8H)-yl)acetamide] | 0.005 to 0.05 µM | 0.5 to 2 µM |
| CCc1c(N2CCN(C(=O)c3ncnc(C)c3O)CC2)c(=O)c2nc(-c3ccnc(OC)c3)c(C)nc2n1CC(=O)Nc1ccc(C(F)(F)F)cc1Cl [I-65, N-(2-chloro-4-(trifluoromethyl)phenyl)-2-(6-ethyl-7-(4-(5-hydroxy-6-methylpyrimidine-4-carbonyl)piperazin-1-yl)-2-(2-methoxypyridin-4-yl)-3-methyl-8-oxopyrido[2,3-b]pyrazin-5(8H)-yl)acetamide] | 0.005 to 0.05 µM | > 5 µM |
| CCc1c(N2CCN(C(=O)c3ncnc(C)c3O)CC2)c(=O)c2nc(N3CC(OC)C3)cnc2n1CC(=O)Nc1ccc(C(F)(F)F)cc1Cl [I-66, N-(2-chloro-4-(trifluoromethyl)phenyl)-2-(6-ethyl-7-(4-(5-hydroxy-6-methylpyrimidine-4-carbonyl)piperazin-1-yl)-2-(3-methoxyazetidin-1-yl)-8-oxopyrido[2,3-b]pyrazin-5(8H)-yl)acetamide] | 0.005 to 0.05 µM | 2 to 5 µM |
| CCc1c(N2CCN(C(=O)c3c(O)cccc3O)CC2)c(=O)c2ncc(C)nc2n1CC(=O)Nc1ccc(C(F)(F)F)cc1Cl [I-67, N-(2-chloro-4-(trifluoromethyl)phenyl)-2-(7-(4-(2,6-dihydroxybenzoyl)piperazin-1-yl)-6-ethyl-3-methyl-8-oxopyrido[2,3-b]pyrazin-5(8H)-yl)acetamide] | 0.005 to 0.05 µM | > 5 µM |
| CCc1c(N2CCN(C(=O)c3ncc4c(c3O)OCC4)CC2)c(=O)c2ncc(C)nc2n1CC(=O)Nc1ccc(C(F)(F)F)cc1Cl [I-68, N-(2-chloro-4-(trifluoromethyl)phenyl)-2-(6-ethyl-7-(4-(7-hydroxy-2,3-dihydrofuro[3,2-c]pyridine-6-carbonyl)piperazin-1-yl)-3-methyl-8-oxopyrido[2,3-b]pyrazin-5(8H)-yl)acetamide] | 0.005 to 0.05 µM | > 5 µM |
| CCc1c(N2CCN(C(=O)c3ncc4c(c3O)CCO4)CC2)c(=O)c2ncc(C)nc2n1CC(=O)Nc1ccc(C(F)(F)F)cc1Cl [I-69, N-(2-chloro-4-(trifluoromethyl)phenyl)-2-(6-ethyl-7-(4-(4-hydroxy-2,3-dihydrofuro[2,3-c]pyridine-5-carbonyl)piperazin-1-yl)-3-methyl-8-oxopyrido[2,3-b]pyrazin-5(8H)-yl)acetamide] | 0.005 to 0.05 µM | > 5 µM |
| CCc1c(N2CCN(C(=O)c3cccc4oc(=O)[nH]c34)CC2)c(=O)c2ncc(C)nc2n1CC(=O)Nc1ccc(C(F)(F)F)cc1Cl [I-70, N-(2-chloro-4-(trifluoromethyl)phenyl)-2-(6-ethyl-3-methyl-8-oxo-7-(4-(2-oxo-2,3-dihydrobenzo[d]oxazole-4-carbonyl)piperazin-1-yl)pyrido[2,3-b]pyrazin-5(8H)-yl)acetamide] | 0.005 to 0.05 µM | > 5 µM |
| CCc1c(N2CCN(C(=O)c3c(O)ccc4nc[nH]c34)CC2)c(=O)c2ncc(C)nc2n1CC(=O)Nc1ccc(C(F)(F)F)cc1Cl [I-71, N-(2-chloro-4-(trifluoromethyl)phenyl)-2-(6-ethyl-7-(4-(6-hydroxy-1H-benzo[d]imidazole-7-carbonyl)piperazin-1-yl)-3-methyl-8-oxopyrido[2,3-b]pyrazin-5(8H)-yl)acetamide] | 0.005 to 0.05 µM | > 5 µM |
| CCc1c(N2CCN(C(=O)c3ncnc(C)c3O)CC2)c(=O)c2nc(N(C)CCOC)cnc2n1CC(=O)Nc1ccc(C(F)(F)F)cc1Cl [I-72, N-(2-chloro-4-(trifluoromethyl)phenyl)-2-(6-ethyl-7-(4-(5-hydroxy-6-methylpyrimidine-4-carbonyl)piperazin-1-yl)-2-((2-methoxyethyl)(methyl)amino)-8-oxopyrido[2,3-b]pyrazin-5(8H)-yl)acetamide] | 0.005 to 0.05 µM | > 5 µM |
